# Measured values published in US20130012687A1, “INDUCIBLE SELF-CLEAVING PROTEASE TAG AND METHOD OF PURIFYING RECOMBINANT PROTEINS USING THE SAME” (The Board of Trustees of the Leland Stanford Junior …, priority 2009, published 2013).
# Molecular target: Vibrio cholerae MARTX toxin cysteine protease domain (CPD) (Vibrio cholerae serotype O1, UniProt Q9KS12)
# Format: biochemical
# Details: increasing amounts of InsP6, 2 hrs at 4° C.
# Sequence of Vibrio cholerae MARTX toxin cysteine protease domain (CPD) (Q9KS12 3440-3650 limits assumed): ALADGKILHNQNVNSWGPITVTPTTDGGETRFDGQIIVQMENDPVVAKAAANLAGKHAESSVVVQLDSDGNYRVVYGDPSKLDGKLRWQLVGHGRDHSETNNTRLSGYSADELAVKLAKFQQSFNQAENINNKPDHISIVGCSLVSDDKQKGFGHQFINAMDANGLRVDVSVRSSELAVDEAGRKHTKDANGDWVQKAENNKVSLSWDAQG
compound,measurement,value
"O=P(O)(O)OC1C(OP(=O)(O)O)C(OP(=O)(O)O)C(OP(=O)(O)O)C(OP(=O)(O)O)C1OP(=O)(O)O (stereo not shown) [InsP6, inositol hexakisphosphate]",release of GFP from Ni2+-NTA agarose beads (CPD autoprocessing),stimulated the release of GFP
